Experimental data as given in patent US20120328602A1, “COMPOSITIONS AND METHODS FOR TREATING CONDITIONS ASSOCIATED WITH CERAMIDE BIOSYNTHESIS” (priority 2007, published 2012).
Where two headings read alike, the source gives them in different places.

How the values were obtained:
mice [1] = assay: hot plate, morphine-induced antinociceptive tolerance (Examples 3-5); assay type: in vivo, Male CD-1 mice; conditions: for development of tolerance, dose-dependence: co-administered with morphine, FB1 0.1-1 mg/kg/d, myriocin 0.1-0.4 mg/kg/d, D609 10-40 mg/kg/d; for development of tolerance, dose-dependence / hot plate latencies following s.c. saline / difference in responses to acute morphine (0.3-3 mg/kg), drug vs vehicle: n=10; for hot plate latencies following s.c. saline: day five, highest dose of drug, no morphine; for difference in responses to acute morphine (0.3-3 mg/kg), drug vs vehicle: highest dose over five days: FB1 1 mg/kg/d, myriocin 0.4 mg/kg/d, D609 40 mg/kg/d; for antinociceptive effects when tested alone: highest dose; for % MPE: tolerant mice, single i.p. dose fifteen minutes before acute morphine 3 mg/kg: FB1 1 mg/kg, myriocin 0.4 mg/kg, D609 40 mg/kg, n=6
Method: Nociceptive thresholds were determined by measuring latencies (in seconds) of mice placed in a transparent glass cylinder on a hot plate (Ugo Basile, Italy) maintained at 52° C. Determination of antinociception was assessed between 7 and 10:00 A.M. All injections were given intra-peritoneally (i.p.) or subcutaneously (s.c.) in a volume of 0.1 and 0.3 ml, respectively, at approximately 7 A.M. and 4 P.M. Responses indicative of nociception included intermittent lifting and/or licking of the hindpaws or escape behavior. […] Results were expressed as percentage of maximum possible antinociceptive effect, which was calculated as follows: (response latency−baseline latency)/(cut-off latency−baseline latency)×100. A cut-off latency of twenty seconds was employed to prevent tissue damage. Ten mice per group were used and all experiments were conducted with the experimentors blinded to treatment conditions. […] The following experimental groups were used: […]
Vehicle (V) Group: In this group, mice were injected twice per day for four days with an i.p, injection of saline and a s.c. injection of saline.

mice [2] = assay type: in vivo; conditions: for responses to acute morphine in control groups vs control groups treated with drug: no repeated morphine; for development of antinociceptive tolerance: co-administration with morphine, i.p., FB1 1 mg/kg, myriocin 0.2 mg/kg, D609 40 mg/kg; for antinociceptive effects when tested alone: drug alone (not shown)
mice [3] = assay: Rotarod motor function test; assay type: in vivo; conditions: myriocin 0.4 mg/kg, FB1 1 mg/kg, D609 40 mg/kg; fifteen, thirty, and sixty minutes after administration; n=4; vs vehicle
Method: Mice were trained before experimentation for their ability to remain for one-hundred twenty seconds on a revolving Rotarod apparatus (accelerating units increase from 3.5 to 35 rpm in five minutes). Mice (n=4 per group) were injected with an i.p. injection of the highest dose of FB1 (1 mg/kg), myriocin (0.4 mg/kg), D609 (40 mg/kg) used to block antinociceptive tolerance or its vehicle. Mice (n=4 per group) were tested and examined for motor […] on the Rotarod at fifteen, thirty, and sixty minutes after drug administration as described in the method section. The latency time to fall off the Rotarod was determined. A cut-off time of one-hundred twenty seconds was used.

[4] = target: T1, acid sphingomyelinase (ASMase) (Mus musculus, UniProt Q04519); assay: sphingomyelinase activity in spinal cord tissues, acid isoforms (Amplex Red kit); assay type: in vivo, mice; conditions: D609 40 mg/kg/d co-administered with morphine
T1 construct: spinal cord tissues were homogenized in buffers for each specific assay; from tissue; host or cells: mouse spinal cord homogenate (Na acetate pH 5.0 lysis buffer)
T1 sequence (Q04519 45-627): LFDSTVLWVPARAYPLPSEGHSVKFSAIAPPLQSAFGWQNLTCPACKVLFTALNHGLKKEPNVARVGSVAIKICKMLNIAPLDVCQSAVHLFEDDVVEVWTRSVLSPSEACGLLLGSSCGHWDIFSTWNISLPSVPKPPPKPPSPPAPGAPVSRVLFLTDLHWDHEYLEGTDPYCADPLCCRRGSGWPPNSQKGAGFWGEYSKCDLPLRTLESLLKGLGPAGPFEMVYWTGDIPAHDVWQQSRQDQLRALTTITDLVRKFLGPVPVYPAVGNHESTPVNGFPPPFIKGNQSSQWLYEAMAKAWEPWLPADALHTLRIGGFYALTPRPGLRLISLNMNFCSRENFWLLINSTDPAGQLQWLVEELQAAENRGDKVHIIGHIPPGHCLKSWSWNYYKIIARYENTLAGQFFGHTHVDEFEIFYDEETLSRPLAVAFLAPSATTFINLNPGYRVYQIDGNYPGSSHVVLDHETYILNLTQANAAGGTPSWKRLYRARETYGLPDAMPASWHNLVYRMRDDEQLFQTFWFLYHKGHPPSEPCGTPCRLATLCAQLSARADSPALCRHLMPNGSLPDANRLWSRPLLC
Method: Sphingomyelinase activity was measure using Amplex® Red Sphingomyelinase Assay Kit (Molecular Probes, Eugene, Oreg.) following manufacturer's instructions. […] For the acid isoforms, Na acetate (100 mM and pH 5.0) lysis buffer was used. 2 mM EDTA was added to the lysis buffer for detection of the insoluble isoform. For neutral isoform detection, the tissues were homogenized in Hepes (20 mM, pH 7.4) lysis buffer. The kinetics for sphingomyelinase activity was measured in a fluorescence microplate reader for two hours followed by normalization per protein concentration of the sample. Hydrogen peroxide and sphingomyelinase were used as positive controls.

ceramide = assay: immunohistochemistry for ceramide in spinal cord (Example 3); conditions: co-administered with morphine; FB1 1 mg/kg/d, myriocin 0.4 mg/kg/d, D609 40 mg/kg/d
neutral SMase = conditions: at 5 mM GSH; cited from earlier work
[5] = tested on: serine palmitoyl transferase (SPT); assay: serine palmitoyl transferase (SPT) activity; assay type: in vivo, mice; conditions: co-administration of morphine with myriocin 0.4 mg/kg/d, n=10
Method: SPT activity was determined by measuring the incorporation of [^3H] serine into 3-ketosphinganine following the method previously described (Williams et al., 1984). The results were normalized by the samples' protein concentration.

acid SMase = target: T2, acid SMase (Homo sapiens, UniProt P17405); conditions: at 30 μM; cited from earlier work
T2 sequence (P17405 47-631): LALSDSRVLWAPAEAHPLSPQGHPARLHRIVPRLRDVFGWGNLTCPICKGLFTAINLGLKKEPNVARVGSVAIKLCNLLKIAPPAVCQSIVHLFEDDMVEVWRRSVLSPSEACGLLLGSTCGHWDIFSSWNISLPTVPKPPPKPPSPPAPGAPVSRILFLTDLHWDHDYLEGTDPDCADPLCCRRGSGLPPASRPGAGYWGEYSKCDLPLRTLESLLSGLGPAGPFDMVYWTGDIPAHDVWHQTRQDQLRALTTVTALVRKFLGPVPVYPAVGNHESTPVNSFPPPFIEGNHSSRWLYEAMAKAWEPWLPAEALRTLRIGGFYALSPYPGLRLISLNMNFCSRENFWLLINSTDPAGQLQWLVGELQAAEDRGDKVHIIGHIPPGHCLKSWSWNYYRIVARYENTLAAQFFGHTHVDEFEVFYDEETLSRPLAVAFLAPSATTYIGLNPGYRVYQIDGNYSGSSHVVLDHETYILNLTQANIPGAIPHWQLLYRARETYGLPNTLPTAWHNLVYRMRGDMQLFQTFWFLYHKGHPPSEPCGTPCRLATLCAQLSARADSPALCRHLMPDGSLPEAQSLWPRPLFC

Compound | development of tolerance, dose-dependence (mice [1]) | hot plate latencies following s.c. saline (mice [1]) | difference in responses to acute morphine (0.3-3 mg/kg), drug vs vehicle (mice [1]) | antinociceptive effects when tested alone (mice [1]) | % MPE (mice [1]) [%] | responses to acute morphine in control groups vs control groups treated with drug (mice [2]) | development of antinociceptive tolerance (mice [2]) | antinociceptive effects when tested alone (mice [2]) | Rotarod motor function deficits (mice [3]) | increased activity of ASMase [4] | ceramide immunostaining (ceramide) | inhibition of neutral SMase (neutral SMase) | activation of SPT [5] | inhibition of acid SMase (acid SMase) [%]
S=C([S-])OC1CC2CC1C1CCCC21.[K+] (stereo not drawn) [D609, tricyclodecan-9-xanthogenate] | blocked in a dose-dependent manner | six and seven | statistically insignificant | none of FB1, myriocin, or D609 had antinociceptive effects | 11±2 | similar | blocked antinociceptive tolerance | no antinociceptive effects | did not show signs of Rotarod deficits | blocked the increased activity of ASMase | blocked | – | – | –
N[C@@H](CCC(=O)N[C@@H](CS)C(=O)NCC(=O)O)C(=O)O [Glutathione] | – | – | – | – | – | – | – | – | – | – | – | greater than 95% | – | –
CCCCCCC(=O)CCCCCC/C=C/C[C@@H](O)[C@H](O)[C@@](N)(CO)C(=O)O [myriocin] | blocked | six and seven | statistically insignificant | none of FB1, myriocin, or D609 had antinociceptive effects | 13±2 | similar | blocked antinociceptive tolerance | no antinociceptive effects | did not show signs of Rotarod deficits | – | blocked | – | blocked, as expected, the activation of SPT | –
COc1ccc(CCN(C)CCCOc2ccc(S(=O)(=O)c3c(C(C)C)cn4ccccc34)cc2)cc1OC [SR33557] | – | – | – | – | – | – | – | – | – | – | – | – | – | 72
